Laboratory results as given in patent publication US8765748B2, “Indazolyl, benzimidazolyl, benzotriazolyl substituted indolinone derivatives as kinase inhibitors useful in the treatment of cancer” (University Health Network, priority 2007, dated 2014).

Key:
Assay in all cases: Kinase Selectivity Assay (CEREP, HTRF)
Type in all cases: biochemical
[1] = target: T1, EphB4 kinase (Homo sapiens, UniProt P54760); details: read-out: % Inhibition at 10 μM Concentration, EphB4
T1 construct: CEREP, France (ran the assays)
T1 sequence (P54760 16-987): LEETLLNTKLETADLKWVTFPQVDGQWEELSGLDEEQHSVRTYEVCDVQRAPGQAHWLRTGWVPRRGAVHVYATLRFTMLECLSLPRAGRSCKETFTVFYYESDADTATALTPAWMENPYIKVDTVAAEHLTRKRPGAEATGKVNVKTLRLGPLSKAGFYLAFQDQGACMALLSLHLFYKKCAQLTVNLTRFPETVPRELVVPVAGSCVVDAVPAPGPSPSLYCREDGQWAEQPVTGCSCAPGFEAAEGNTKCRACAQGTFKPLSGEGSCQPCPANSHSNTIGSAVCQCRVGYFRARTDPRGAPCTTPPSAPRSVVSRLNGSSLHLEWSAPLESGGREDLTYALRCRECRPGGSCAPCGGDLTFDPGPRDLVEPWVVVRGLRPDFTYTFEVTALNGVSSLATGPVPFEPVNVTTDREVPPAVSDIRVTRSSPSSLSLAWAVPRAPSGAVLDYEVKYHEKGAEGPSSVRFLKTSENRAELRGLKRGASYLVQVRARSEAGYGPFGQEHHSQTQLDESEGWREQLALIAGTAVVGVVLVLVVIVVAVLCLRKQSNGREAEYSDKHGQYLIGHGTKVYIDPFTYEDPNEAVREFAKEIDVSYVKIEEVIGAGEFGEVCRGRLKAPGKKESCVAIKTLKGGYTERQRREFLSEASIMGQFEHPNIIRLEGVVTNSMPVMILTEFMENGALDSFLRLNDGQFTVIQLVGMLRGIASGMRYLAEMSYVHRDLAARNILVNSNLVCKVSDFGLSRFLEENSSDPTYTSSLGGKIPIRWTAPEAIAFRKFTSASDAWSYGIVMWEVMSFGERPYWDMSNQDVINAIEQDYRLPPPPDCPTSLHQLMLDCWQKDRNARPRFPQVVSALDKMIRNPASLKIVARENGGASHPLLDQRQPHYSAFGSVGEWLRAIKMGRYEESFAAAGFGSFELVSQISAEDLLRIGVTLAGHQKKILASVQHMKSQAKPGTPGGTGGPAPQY
Experimental: (§1) kinase, ROCK2, RSK2, Src kinase, Syk, and TRKA. The % Inhibition was determined

[2] = target: IGF1R kinase (Homo sapiens, UniProt P08069); details: read-out: % Inhibition at 10 μM Concentration, IGF1R
Chain of IGF1R kinase (P08069 31-1367): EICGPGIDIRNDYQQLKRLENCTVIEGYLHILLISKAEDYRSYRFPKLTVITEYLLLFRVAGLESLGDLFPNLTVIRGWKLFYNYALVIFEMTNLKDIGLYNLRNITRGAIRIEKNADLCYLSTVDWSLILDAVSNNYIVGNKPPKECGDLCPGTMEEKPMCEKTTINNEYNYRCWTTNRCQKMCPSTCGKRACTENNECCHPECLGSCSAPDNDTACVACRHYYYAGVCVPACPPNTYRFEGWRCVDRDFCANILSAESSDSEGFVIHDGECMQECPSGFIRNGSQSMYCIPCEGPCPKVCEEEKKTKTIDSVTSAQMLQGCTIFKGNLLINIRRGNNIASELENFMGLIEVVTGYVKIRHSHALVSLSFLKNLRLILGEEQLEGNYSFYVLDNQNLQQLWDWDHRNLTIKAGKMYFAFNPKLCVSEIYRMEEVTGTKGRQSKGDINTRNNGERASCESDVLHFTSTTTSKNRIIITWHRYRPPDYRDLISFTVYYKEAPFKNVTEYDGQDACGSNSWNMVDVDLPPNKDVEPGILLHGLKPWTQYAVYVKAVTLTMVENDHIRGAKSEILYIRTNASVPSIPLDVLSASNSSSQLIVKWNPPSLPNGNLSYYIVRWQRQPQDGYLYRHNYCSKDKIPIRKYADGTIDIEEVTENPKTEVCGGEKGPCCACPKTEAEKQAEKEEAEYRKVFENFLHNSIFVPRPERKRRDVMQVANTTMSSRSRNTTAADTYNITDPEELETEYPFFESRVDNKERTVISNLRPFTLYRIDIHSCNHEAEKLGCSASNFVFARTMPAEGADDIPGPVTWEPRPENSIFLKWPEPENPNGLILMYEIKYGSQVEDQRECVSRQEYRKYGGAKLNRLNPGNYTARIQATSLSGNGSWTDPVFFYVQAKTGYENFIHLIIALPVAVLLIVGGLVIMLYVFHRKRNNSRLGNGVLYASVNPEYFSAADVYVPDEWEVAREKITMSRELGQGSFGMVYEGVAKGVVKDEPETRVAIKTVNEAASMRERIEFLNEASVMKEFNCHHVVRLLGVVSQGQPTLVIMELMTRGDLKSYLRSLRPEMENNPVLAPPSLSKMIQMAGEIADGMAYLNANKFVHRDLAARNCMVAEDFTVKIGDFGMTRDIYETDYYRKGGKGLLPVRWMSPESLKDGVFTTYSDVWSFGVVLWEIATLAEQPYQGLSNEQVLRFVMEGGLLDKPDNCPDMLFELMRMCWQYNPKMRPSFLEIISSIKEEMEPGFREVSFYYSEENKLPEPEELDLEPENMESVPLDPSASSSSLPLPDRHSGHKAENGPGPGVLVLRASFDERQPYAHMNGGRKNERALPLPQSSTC
Experimental: as §1

[3] = target: IRK (InsR) (Homo sapiens, UniProt P06213); details: read-out: % Inhibition at 10 μM Concentration, IRK (InsR)
Chain of IRK (InsR) (P06213 28-1382): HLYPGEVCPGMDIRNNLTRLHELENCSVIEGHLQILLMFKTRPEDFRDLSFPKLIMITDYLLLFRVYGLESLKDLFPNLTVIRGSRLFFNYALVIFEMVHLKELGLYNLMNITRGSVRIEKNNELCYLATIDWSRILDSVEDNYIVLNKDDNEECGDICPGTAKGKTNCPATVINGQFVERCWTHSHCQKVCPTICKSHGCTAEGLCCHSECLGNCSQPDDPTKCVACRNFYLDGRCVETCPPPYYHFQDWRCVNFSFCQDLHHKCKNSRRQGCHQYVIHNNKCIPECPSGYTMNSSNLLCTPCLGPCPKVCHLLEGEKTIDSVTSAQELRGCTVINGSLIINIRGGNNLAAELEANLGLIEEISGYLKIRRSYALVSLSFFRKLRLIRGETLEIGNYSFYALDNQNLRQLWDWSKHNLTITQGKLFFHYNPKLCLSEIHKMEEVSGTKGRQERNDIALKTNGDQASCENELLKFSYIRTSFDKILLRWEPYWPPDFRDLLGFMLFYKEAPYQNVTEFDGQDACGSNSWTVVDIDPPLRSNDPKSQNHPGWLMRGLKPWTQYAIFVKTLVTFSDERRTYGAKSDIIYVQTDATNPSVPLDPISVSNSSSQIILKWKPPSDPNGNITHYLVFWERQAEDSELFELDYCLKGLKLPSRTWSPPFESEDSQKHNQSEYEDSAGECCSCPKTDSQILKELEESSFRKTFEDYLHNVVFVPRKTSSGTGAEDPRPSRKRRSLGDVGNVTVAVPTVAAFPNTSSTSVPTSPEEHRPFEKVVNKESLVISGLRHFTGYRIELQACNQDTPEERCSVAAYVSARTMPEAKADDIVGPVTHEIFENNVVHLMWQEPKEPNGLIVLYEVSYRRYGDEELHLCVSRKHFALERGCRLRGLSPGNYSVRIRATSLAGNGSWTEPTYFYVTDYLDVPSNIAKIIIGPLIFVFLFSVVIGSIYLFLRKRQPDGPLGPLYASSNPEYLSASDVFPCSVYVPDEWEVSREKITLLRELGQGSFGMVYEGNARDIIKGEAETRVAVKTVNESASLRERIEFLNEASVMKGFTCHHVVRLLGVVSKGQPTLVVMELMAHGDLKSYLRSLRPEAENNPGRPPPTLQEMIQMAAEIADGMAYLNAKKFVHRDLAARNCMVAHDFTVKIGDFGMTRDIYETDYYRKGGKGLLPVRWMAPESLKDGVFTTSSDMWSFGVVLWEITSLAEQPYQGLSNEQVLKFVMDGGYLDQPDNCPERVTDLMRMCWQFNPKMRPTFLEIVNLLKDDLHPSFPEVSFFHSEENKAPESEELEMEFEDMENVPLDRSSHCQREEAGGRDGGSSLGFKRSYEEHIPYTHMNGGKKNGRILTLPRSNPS
Experimental: as §1

[4] = target: T2, PDK1 (Homo sapiens, UniProt O15530); details: read-out: % Inhibition at 10 μM Concentration, PDK1
T2 sequence (O15530 1-556): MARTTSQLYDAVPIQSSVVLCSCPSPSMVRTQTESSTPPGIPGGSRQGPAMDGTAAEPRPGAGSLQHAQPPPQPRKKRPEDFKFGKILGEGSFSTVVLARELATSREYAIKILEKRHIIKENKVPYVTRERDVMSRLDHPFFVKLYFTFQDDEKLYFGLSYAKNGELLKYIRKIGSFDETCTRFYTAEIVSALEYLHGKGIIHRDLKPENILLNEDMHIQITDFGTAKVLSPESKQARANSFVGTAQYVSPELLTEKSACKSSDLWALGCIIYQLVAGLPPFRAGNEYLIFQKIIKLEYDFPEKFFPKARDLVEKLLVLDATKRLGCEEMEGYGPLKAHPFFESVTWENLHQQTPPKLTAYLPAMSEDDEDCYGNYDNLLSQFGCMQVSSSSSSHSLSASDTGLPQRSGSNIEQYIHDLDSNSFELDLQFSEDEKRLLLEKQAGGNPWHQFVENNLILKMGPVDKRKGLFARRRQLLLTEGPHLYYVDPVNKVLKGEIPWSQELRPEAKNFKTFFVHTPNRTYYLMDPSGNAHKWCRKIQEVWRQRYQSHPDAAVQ
Experimental: as §1

[5] = target: T3, ERK2 (P42mapk) (Homo sapiens, UniProt P28482); details: read-out: % Inhibition at 10 μM Concentration, ERK (P42mapk)
T3 construct: CEREP, France (ran the assays)
Experimental: as §1

[6] = target: Fyn kinase (Homo sapiens, UniProt P06241); details: read-out: % Inhibition at 10 μM Concentration, Fyn
Chain of Fyn kinase (P06241 whole entry): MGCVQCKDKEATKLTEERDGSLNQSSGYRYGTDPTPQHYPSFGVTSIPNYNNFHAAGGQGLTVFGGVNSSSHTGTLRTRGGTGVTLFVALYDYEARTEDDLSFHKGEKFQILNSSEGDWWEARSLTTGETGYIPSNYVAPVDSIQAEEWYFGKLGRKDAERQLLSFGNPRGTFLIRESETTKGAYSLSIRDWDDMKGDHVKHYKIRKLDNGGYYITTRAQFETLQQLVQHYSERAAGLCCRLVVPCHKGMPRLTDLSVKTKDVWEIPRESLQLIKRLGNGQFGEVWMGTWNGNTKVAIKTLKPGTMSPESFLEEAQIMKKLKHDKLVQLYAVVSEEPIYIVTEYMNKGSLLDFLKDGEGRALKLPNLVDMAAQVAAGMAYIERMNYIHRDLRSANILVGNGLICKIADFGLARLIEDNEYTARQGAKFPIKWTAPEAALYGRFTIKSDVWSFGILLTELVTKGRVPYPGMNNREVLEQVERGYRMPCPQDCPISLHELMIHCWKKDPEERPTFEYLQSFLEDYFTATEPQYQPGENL
Experimental: as §1

[7] = target: PKCg (Homo sapiens, UniProt P05129); details: read-out: % Inhibition at 10 μM Concentration, PKCgamma
Experimental: as §1

[8] = target: T4, Brk (Homo sapiens, UniProt Q13882); details: read-out: % Inhibition at 10 μM Concentration, Brk
T4 construct: CEREP, France (ran the assays)
Experimental: as §1

[9] = target: Syk (Homo sapiens, UniProt P43405); details: read-out: % Inhibition at 10 μM Concentration, Syk
Experimental: as §1

[10] = target: T5, p38g kinase (Homo sapiens, UniProt P53778); details: read-out: % Inhibition at 10 μM Concentration, p38gamma
T5 sequence (P53778 1-367): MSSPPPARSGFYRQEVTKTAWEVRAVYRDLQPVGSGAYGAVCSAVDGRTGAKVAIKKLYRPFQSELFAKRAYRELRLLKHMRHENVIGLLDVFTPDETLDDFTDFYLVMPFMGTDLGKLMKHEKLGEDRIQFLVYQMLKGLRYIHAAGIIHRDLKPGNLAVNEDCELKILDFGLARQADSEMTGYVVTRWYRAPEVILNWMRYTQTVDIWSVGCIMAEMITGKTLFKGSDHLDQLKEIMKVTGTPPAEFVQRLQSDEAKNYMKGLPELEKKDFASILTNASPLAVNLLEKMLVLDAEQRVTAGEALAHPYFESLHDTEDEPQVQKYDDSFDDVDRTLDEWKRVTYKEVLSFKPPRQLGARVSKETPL
Experimental: as §1

[11] = target: T6, c-Met kinase (Homo sapiens, UniProt P08581); details: read-out: % Inhibition at 10 μM Concentration, c-Met
T6 construct: CEREP, France (ran the assays)
T6 sequence (P08581 25-1390): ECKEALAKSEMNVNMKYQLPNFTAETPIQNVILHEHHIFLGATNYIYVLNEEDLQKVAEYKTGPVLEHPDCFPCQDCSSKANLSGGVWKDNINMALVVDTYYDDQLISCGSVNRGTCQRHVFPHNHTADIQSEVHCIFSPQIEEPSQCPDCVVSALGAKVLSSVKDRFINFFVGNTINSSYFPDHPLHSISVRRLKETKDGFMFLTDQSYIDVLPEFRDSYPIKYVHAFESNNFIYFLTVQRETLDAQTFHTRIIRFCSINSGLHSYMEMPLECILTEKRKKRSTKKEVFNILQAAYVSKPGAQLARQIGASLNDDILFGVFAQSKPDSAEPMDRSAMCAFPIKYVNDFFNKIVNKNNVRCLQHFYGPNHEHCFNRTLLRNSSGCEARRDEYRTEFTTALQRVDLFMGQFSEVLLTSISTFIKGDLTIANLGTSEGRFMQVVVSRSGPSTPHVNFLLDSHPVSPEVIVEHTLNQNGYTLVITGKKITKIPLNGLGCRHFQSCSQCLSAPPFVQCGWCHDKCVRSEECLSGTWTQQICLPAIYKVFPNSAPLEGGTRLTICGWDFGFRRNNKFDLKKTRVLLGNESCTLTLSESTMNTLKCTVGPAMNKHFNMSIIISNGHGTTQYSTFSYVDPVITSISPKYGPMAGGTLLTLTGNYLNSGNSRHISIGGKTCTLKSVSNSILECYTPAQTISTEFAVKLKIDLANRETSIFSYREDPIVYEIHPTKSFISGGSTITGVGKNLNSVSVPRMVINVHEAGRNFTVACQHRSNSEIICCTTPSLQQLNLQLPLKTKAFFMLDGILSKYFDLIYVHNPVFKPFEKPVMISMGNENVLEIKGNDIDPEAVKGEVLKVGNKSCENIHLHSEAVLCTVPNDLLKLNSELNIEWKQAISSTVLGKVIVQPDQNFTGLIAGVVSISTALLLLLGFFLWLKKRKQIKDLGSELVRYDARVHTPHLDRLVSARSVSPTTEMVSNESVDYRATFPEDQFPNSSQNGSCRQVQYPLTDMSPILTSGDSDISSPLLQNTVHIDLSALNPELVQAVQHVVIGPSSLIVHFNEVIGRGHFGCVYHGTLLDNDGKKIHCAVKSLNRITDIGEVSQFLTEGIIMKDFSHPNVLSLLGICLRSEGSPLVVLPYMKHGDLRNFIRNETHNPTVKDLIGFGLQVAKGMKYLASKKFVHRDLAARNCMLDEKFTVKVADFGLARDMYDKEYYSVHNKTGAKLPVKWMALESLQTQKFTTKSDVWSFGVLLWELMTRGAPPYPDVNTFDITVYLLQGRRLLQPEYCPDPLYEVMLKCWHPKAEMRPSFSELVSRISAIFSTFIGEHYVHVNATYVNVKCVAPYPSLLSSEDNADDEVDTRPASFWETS
Experimental: as §1

[12] = target: MEK1/MAP2K1 (Homo sapiens, UniProt Q02750); details: read-out: % Inhibition at 10 μM Concentration, MEK1/MAP2K1
Chain of MEK1/MAP2K1 (Q02750 whole entry): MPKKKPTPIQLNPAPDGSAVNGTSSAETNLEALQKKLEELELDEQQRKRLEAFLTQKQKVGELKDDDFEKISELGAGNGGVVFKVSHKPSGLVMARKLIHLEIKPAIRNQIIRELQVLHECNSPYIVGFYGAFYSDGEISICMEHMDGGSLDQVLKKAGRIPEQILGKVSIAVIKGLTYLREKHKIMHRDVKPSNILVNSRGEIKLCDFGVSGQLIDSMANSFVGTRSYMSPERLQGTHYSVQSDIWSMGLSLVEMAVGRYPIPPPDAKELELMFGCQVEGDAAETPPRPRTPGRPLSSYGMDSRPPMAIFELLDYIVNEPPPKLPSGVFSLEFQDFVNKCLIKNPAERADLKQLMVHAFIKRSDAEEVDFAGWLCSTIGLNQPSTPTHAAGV
Experimental: as §1

SMILES	inhibition at 10 µM [1] [%]	inhibition at 10 µM [2] [%]	inhibition at 10 µM [3] [%]	inhibition at 10 µM [4] [%]	inhibition at 10 µM [5] [%]	inhibition at 10 µM [6] [%]	inhibition at 10 µM [7] [%]	inhibition at 10 µM [8] [%]	inhibition at 10 µM [9] [%]	inhibition at 10 µM [10] [%]	inhibition at 10 µM [11] [%]	inhibition at 10 µM [12] [%]
O=C1Nc2ccccc2C1=Cc1ccc2c(/C=C/c3ccccn3)n[nH]c2c1 (mixture of isomers) [Example A41, (E and Z)-3-((3-((E)-2-(pyridin-2-yl)vinyl)-1H-indazol-6-yl)methylene)indolin-2-one]	85	43	34	4	14	91	0	40	70	2	35	46
COc1ccc2c(c1)C(=Cc1ccc3c(-c4ccc(N5CCN(C)CC5)nc4)n[nH]c3c1)C(=O)N2 (mixture of isomers) [Example A97, (E and Z)-5-methoxy-3-((3-(6-(4-methylpiperazin-1-yl)pyridin-3-yl)-1H-indazol-6-yl)methylene)indolin-2-one]	6	4	9	73	-9	13	0	7	21	1	28	9
O=C1Nc2ccccc2/C1=C\c1ccc2[nH]nnc2c1 [Example A1, (E)-3-((1H-benzo[d][1,2,3]triazol-5-yl)methylene)indolin-2-one]	5	7	13	-3	3	24	9	5	-2	14	-20	20
O=C1Nc2ccccc2/C1=C\c1ccc2cn[nH]c2c1 [Example A5, (E)-3-((1H-indazol-6-yl)methylene)indolin-2-one]	-5	-4	12	2	0	5	-6	-6	-3	5	2	3
O=C1Nc2ccccc2/C1=C\c1ccc2c(/C=C/c3ccccc3Cl)n[nH]c2c1 [Example A60, (E)-3-((3-((E)-2-chlorostyryl)-1H-indazol-6-yl)methylene)indolin-2-one]	-14	81	6	1	2	70	3	4		10	0	16
